Measured values as given in PubChem BioAssay (NCI).
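Dose response: 5 concentrations. Exposure: 48 h. Format: 96-well plates. Endpoint: linear interpolation; highest concentration if not reached. GI50: concentration for 50% inhibition of growth. At the TGI there is no net growth.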

How the values were obtained:
Assay in all cases: inhibition of tumour cell growth, NCI panel, 48 h
HS 578T breast = tested on: HS 578T breast
SK-OV-3 ovarian = tested on: SK-OV-3 ovarian
HCT-15 colon = tested on: HCT-15 colon
SN12C renal = tested on: SN12C renal
HCT-116 colon = tested on: HCT-116 colon
SK-MEL-2 melanoma = tested on: SK-MEL-2 melanoma
NCI-H226 lung = tested on: NCI-H226 lung
HT29 colon = tested on: HT29 colon
RXF 393 renal = tested on: RXF 393 renal
COLO 205 colon = tested on: COLO 205 colon

`CCSc1nc(N)c2cnn(C)c2n1` showed a GI50 (HS 578T breast) of 30.7 µM, a TGI (HS 578T breast) of 74 µM and a GI50 (SK-OV-3 ovarian) of 54.8 µM. It also gave a TGI (SK-OV-3 ovarian) of over 100 µM, a GI50 (HCT-15 colon) of 32 µM and a TGI (HCT-15 colon) of over 100 µM. It also gave a GI50 (SN12C renal) of 48.9 µM, a TGI (SN12C renal) of over 100 µM and a GI50 (HCT-116 colon) of 28.9 µM. The TGI (HCT-116 colon) was over 100 µM, the GI50 (SK-MEL-2 melanoma) was over 100 µM and the TGI (SK-MEL-2 melanoma) was over 100 µM. It also gave a GI50 (NCI-H226 lung) of 27.4 µM, a TGI (NCI-H226 lung) of 69.2 µM and a GI50 (HT29 colon) of 58.4 µM. It also gave a TGI (HT29 colon) of over 100 µM, a GI50 (RXF 393 renal) of 36.2 µM and a TGI (RXF 393 renal) of over 100 µM. The GI50 (COLO 205 colon) was 29.9 µM and the TGI (COLO 205 colon) was over 100 µM.
`CC(=O)Nc1ccc(-n2cnc3cc(-c4ccc(OCCN5CCCCC5)cc4)ccc32)cc1` showed a GI50 (HS 578T breast) of 4.15 µM, a TGI (HS 578T breast) of 10.8 µM and a GI50 (SK-OV-3 ovarian) of 6.2 µM. The TGI (SK-OV-3 ovarian) was 12.2 µM, the GI50 (HCT-15 colon) was 1.54 µM and the TGI (HCT-15 colon) was 6.38 µM. The GI50 (SN12C renal) was 4.48 µM, the TGI (SN12C renal) was 9.72 µM and the GI50 (HCT-116 colon) was 0.667 µM. For the same compound, the TGI (HCT-116 colon) was 1.3 µM, the GI50 (SK-MEL-2 melanoma) was 5.81 µM and the TGI (SK-MEL-2 melanoma) was 11.5 µM. The GI50 (NCI-H226 lung) was 2.92 µM, the TGI (NCI-H226 lung) was 8.43 µM and the GI50 (HT29 colon) was 1.12 µM. It also gave a TGI (HT29 colon) of 3.92 µM, a GI50 (RXF 393 renal) of 3.04 µM and a TGI (RXF 393 renal) of 8.04 µM. For the same compound, the GI50 (COLO 205 colon) was 5.2 µM and the TGI (COLO 205 colon) was 10.7 µM.
`C=CC[PH+](c1ccccc1)c1ccccc1.C=CC[PH+](c1ccccc1)c1ccccc1.[Cl][Pt][Cl]` gave a GI50 (HS 578T breast) of 13.4 µM, a TGI (HS 578T breast) of 48.6 µM and a GI50 (SK-OV-3 ovarian) of 24 µM. For the same compound, the TGI (SK-OV-3 ovarian) was 65.7 µM, the GI50 (HCT-15 colon) was 3.87 µM and the TGI (HCT-15 colon) was 16.8 µM. The GI50 (SN12C renal) was 3.35 µM, the TGI (SN12C renal) was 13.9 µM and the GI50 (HCT-116 colon) was 3.2 µM. It also gave a TGI (HCT-116 colon) of 10.6 µM, a GI50 (SK-MEL-2 melanoma) of 18.3 µM and a TGI (SK-MEL-2 melanoma) of 40.4 µM. The GI50 (NCI-H226 lung) was 16.1 µM, the TGI (NCI-H226 lung) was 33 µM and the GI50 (HT29 colon) was 8.98 µM. The TGI (HT29 colon) was 32.8 µM, the GI50 (RXF 393 renal) was 3.33 µM and the TGI (RXF 393 renal) was 9.82 µM. It also gave a GI50 (COLO 205 colon) of 5.39 µM and a TGI (COLO 205 colon) of 34.1 µM.
In the case of `COc1cc(/C=C\c2cccnc2Nc2ccccc2)cc(OC)c1OC`, the GI50 (HS 578T breast) is reported as 13.2 µM, the TGI (HS 578T breast) is reported as over 100 µM and the GI50 (SK-OV-3 ovarian) is reported as 11.1 µM. It also gave a TGI (SK-OV-3 ovarian) of over 100 µM, a GI50 (HCT-15 colon) of 5.02 µM and a TGI (HCT-15 colon) of over 100 µM. For the same compound, the GI50 (SN12C renal) was 5.1 µM, the TGI (SN12C renal) was over 100 µM and the GI50 (HCT-116 colon) was 3.77 µM. For the same compound, the TGI (HCT-116 colon) was 15.6 µM, the GI50 (SK-MEL-2 melanoma) was 8 µM and the TGI (SK-MEL-2 melanoma) was 28.8 µM. The GI50 (NCI-H226 lung) was 10.8 µM, the TGI (NCI-H226 lung) was 33.2 µM and the GI50 (HT29 colon) was 5.51 µM. It also gave a TGI (HT29 colon) of 98.3 µM, a GI50 (RXF 393 renal) of 5.22 µM and a TGI (RXF 393 renal) of 64.8 µM. The GI50 (COLO 205 colon) was 4.44 µM and the TGI (COLO 205 colon) was 16.2 µM.
`CCCCCCN(CCCCCC)CC(O)c1cccc2ccc(Cl)cc12` (stereo not given) showed a GI50 (HS 578T breast) of 8.36 µM, a TGI (HS 578T breast) of 26.4 µM and a GI50 (SK-OV-3 ovarian) of 11.3 µM. It also gave a TGI (SK-OV-3 ovarian) of 23.4 µM, a GI50 (HCT-15 colon) of 5.01 µM and a TGI (HCT-15 colon) of 18.3 µM. It also gave a GI50 (SN12C renal) of 10.7 µM, a TGI (SN12C renal) of 23.6 µM and a GI50 (HCT-116 colon) of 3.09 µM. For the same compound, the TGI (HCT-116 colon) was 14.2 µM, the GI50 (SK-MEL-2 melanoma) was 10.2 µM and the TGI (SK-MEL-2 melanoma) was 24.6 µM. The GI50 (NCI-H226 lung) was 4.89 µM, the TGI (NCI-H226 lung) was 18.2 µM and the GI50 (HT29 colon) was 3.86 µM. The TGI (HT29 colon) was 18.5 µM, the GI50 (RXF 393 renal) was 2.16 µM and the TGI (RXF 393 renal) was 7.71 µM. The GI50 (COLO 205 colon) was 3.82 µM and the TGI (COLO 205 colon) was 14.9 µM.
`O=c1[nH]c(-c2ccccn2)nc2sc3c(c12)CCCCCC3` was tested, and the GI50 (HS 578T breast) was 6.45 µM, the TGI (HS 578T breast) was over 100 µM and the GI50 (SK-OV-3 ovarian) was over 100 µM. For the same compound, the TGI (SK-OV-3 ovarian) was over 100 µM, the GI50 (HCT-15 colon) was 2.35 µM and the TGI (HCT-15 colon) was over 100 µM. For the same compound, the GI50 (SN12C renal) was 6.29 µM, the TGI (SN12C renal) was over 100 µM and the GI50 (HCT-116 colon) was 1.37 µM. The TGI (HCT-116 colon) was over 100 µM, the GI50 (SK-MEL-2 melanoma) was over 100 µM and the TGI (SK-MEL-2 melanoma) was over 100 µM. For the same compound, the GI50 (NCI-H226 lung) was over 100 µM, the TGI (NCI-H226 lung) was over 100 µM and the GI50 (HT29 colon) was 7.69 µM. The TGI (HT29 colon) was over 100 µM, the GI50 (RXF 393 renal) was 7.42 µM and the TGI (RXF 393 renal) was over 100 µM. It also gave a GI50 (COLO 205 colon) of 5.85 µM and a TGI (COLO 205 colon) of over 100 µM.
`O=C(CC(C(=O)O)N1CCOCC1)c1ccccc1` (stereo not given) was tested, and the TGI (HS 578T breast) was 88.9 µM, the TGI (SK-OV-3 ovarian) was over 100 µM and the TGI (HCT-15 colon) was 40.8 µM. The TGI (SN12C renal) was 35.7 µM, the TGI (HCT-116 colon) was 27 µM and the TGI (SK-MEL-2 melanoma) was 34.9 µM. It also gave a TGI (NCI-H226 lung) of over 100 µM, a TGI (HT29 colon) of 32.1 µM and a TGI (RXF 393 renal) of 34.3 µM. It also gave a TGI (COLO 205 colon) of 39.7 µM.
`CC(=O)C1=C(O)/C(=C\c2ccco2)OC1=O` showed a TGI (HS 578T breast) of over 10 µM, a TGI (SK-OV-3 ovarian) of over 10 µM and a TGI (HCT-15 colon) of over 10 µM. It also gave a TGI (SN12C renal) of over 10 µM, a TGI (HCT-116 colon) of over 10 µM and a TGI (SK-MEL-2 melanoma) of over 10 µM. The TGI (NCI-H226 lung) was over 10 µM, the TGI (HT29 colon) was over 10 µM and the TGI (RXF 393 renal) was over 10 µM. For the same compound, the TGI (COLO 205 colon) was over 10 µM.
`CCc1nc(N)nc(N)c1-c1ccc([N+](=O)[O-])c(Cl)c1` was tested, and the TGI (HS 578T breast) was over 100 µM, the TGI (SK-OV-3 ovarian) was over 100 µM and the TGI (HCT-15 colon) was over 100 µM. It also gave a TGI (SN12C renal) of over 100 µM, a TGI (HCT-116 colon) of over 100 µM and a TGI (SK-MEL-2 melanoma) of over 100 µM. The TGI (NCI-H226 lung) was over 100 µM, the TGI (HT29 colon) was over 100 µM and the TGI (RXF 393 renal) was over 100 µM. It also gave a TGI (COLO 205 colon) of over 100 µM.
With `CCCCCCCCCCCCCCCC(=O)OCC1OC(n2ccc(N)nc2=O)C(O)C1O` (stereo not given) the TGI (HS 578T breast) was over 100 µM, the TGI (SK-OV-3 ovarian) was over 100 µM and the TGI (HCT-15 colon) was over 100 µM. It also gave a TGI (SN12C renal) of over 100 µM, a TGI (HCT-116 colon) of over 100 µM and a TGI (SK-MEL-2 melanoma) of over 100 µM. The TGI (NCI-H226 lung) was over 100 µM, the TGI (HT29 colon) was over 100 µM and the TGI (RXF 393 renal) was over 100 µM. The TGI (COLO 205 colon) was over 100 µM.
With `CCNC(=O)Oc1ccc(/C(=C(\C)c2ccc(Cl)cc2)c2ccc(OCCN3CCCCC3)cc2)cc1` the GI50 (HS 578T breast) was 3.62 µM, the TGI (HS 578T breast) was 17.2 µM and the GI50 (SK-OV-3 ovarian) was 8.52 µM. For the same compound, the TGI (SK-OV-3 ovarian) was 21.3 µM, the GI50 (HCT-15 colon) was 2.49 µM and the TGI (HCT-15 colon) was 7.72 µM. The GI50 (SN12C renal) was 5.95 µM, the TGI (SN12C renal) was 19.2 µM and the GI50 (HCT-116 colon) was 1.69 µM. The TGI (HCT-116 colon) was 3.22 µM, the GI50 (SK-MEL-2 melanoma) was 5.49 µM and the TGI (SK-MEL-2 melanoma) was 19.2 µM. It also gave a GI50 (NCI-H226 lung) of 14.4 µM, a TGI (NCI-H226 lung) of 36.7 µM and a GI50 (HT29 colon) of 3.16 µM. The TGI (HT29 colon) was 10.9 µM, the GI50 (RXF 393 renal) was 2.19 µM and the TGI (RXF 393 renal) was 8.77 µM. For the same compound, the GI50 (COLO 205 colon) was 2.1 µM and the TGI (COLO 205 colon) was 4.6 µM.
